Among the data in patent US20230141863A1, “Small Molecule Inhibitors Targeting the Sodium Channel Tamoxifen Receptor and Uses Thereof” (Northwestern University, priority 2021, published 2023) are slope of concentration-dependence values, retold here.

Experiment [1] deals with T1, human Nav1.7 (Homo sapiens, UniProt Q15858).
T1 construct: expressed in transfected cells; host or cells: HEK cells, transient transfection with lipofectamine
Put plainly: Voltage clamp of heterologously expressed Nav1.7. It is filed as cell-based. The following applies: Hill fit, printed for ND-Tam and 4OH-Tam together. Here is the method:
(§1) While no clear drug-receptor interactions were determined within Siteout, the S6 E220 side chains formed hydrogen bond interactions with the ether and amine moieties of the ND-Tam molecules found at Sitein. […] After structural alignment of the crystalized NavMs-Tam complex with the cryo EM Nav1.7+b1+b2 channel coordinates, the S6 side chain hydroxyl in DII (S969) and the carboxyl side chains in DIII (E1458) and DIV (D1761) observed in the human channel were nearly superimposable with E220 of the prokaryotic Nav subunits. In addition, the distances from the drug ether and amines were within acceptable distances (2.8-3.1 Å) for hydrogen bond formation for all three site chains (FIG. 2B). […]
(§2) Plasmids encoding the human version of channels Nav1.1, 1.6, and 1.7 were co-transfected with TRES GFP into HEK cell lines for whole-cell voltage clamp studies (American Type Culture Collection). […] Plasma membrane currents were recorded using borosilicate glass electrodes polished to resistances of […]. Sodium currents conducted by heterologously expressed Navs were recorded using the following solutions (in mM). […] Endogenous DRG sodium currents were recorded using an intracellular solution consisting of 70 CsCl, 70 CsF, 2 EGTA, 5 HEPES, and 5 NaCl; the pH was adjusted to 7.4 with CsOH. […]

Experiment [2] has as its target T2, Nav1.7 D1458A in domain III (Homo sapiens, UniProt Q15858, D1458A).
T2 construct: expressed in transfected cells
Put plainly: Voltage clamp of Nav1.7 with alanine substitution in domain III. It counts as cell-based. Here is the method:
as §1, §2

T2 sequence (Q15858 whole entry D1458A, the tested form may be a part): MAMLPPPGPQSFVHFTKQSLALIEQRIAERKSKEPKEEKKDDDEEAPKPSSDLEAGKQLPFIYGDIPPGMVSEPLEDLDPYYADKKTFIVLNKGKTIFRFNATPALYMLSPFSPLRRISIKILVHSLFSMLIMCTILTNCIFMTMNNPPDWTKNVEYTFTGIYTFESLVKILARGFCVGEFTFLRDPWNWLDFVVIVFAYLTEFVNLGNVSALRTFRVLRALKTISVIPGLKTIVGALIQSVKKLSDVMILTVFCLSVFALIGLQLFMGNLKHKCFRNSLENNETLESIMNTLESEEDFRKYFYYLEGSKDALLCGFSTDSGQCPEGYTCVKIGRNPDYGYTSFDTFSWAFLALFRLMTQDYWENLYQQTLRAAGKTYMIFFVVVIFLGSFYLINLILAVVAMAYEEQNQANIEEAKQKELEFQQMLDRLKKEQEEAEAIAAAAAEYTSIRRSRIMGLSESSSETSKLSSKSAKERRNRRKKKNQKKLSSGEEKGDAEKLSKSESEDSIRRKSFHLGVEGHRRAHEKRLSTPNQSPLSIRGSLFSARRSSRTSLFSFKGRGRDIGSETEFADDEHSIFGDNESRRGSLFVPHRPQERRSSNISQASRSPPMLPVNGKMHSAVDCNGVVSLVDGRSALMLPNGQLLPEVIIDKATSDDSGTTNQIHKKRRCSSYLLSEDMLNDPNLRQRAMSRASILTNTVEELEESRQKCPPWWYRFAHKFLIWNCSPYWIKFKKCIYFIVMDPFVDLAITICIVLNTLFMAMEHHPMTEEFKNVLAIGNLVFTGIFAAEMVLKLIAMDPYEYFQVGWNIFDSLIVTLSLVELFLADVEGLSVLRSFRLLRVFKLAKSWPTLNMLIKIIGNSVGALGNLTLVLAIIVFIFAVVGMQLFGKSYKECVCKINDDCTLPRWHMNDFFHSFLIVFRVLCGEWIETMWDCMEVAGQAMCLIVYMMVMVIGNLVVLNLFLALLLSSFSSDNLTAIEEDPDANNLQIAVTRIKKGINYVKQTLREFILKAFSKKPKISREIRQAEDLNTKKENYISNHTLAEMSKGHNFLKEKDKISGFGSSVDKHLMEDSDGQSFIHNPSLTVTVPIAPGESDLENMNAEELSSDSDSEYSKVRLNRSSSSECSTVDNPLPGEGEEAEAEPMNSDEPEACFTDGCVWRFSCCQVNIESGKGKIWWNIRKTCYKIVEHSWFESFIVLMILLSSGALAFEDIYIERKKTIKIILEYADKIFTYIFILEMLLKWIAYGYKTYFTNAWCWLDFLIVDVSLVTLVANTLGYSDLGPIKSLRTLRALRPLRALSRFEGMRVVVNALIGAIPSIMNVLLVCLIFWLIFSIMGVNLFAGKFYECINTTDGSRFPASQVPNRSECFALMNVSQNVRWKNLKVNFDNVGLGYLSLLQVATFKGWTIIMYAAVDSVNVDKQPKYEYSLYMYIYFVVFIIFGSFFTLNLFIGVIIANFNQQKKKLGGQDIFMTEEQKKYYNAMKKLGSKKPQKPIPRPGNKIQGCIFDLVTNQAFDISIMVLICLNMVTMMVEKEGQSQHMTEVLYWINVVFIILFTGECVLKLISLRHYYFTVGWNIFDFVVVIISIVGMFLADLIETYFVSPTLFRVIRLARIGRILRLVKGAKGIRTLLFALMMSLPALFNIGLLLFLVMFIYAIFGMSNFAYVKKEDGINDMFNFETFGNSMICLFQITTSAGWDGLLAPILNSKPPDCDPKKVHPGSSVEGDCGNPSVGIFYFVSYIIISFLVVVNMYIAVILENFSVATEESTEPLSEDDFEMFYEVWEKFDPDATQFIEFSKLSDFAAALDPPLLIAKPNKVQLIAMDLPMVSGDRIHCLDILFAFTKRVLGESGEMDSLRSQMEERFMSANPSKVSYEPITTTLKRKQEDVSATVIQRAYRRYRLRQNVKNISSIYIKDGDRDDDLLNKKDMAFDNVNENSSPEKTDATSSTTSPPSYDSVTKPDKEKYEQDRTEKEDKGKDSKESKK
T1 sequence (Q15858 whole entry): as the sequence (Q15858 whole entry D1458A, the tested form may be a part) above, with A1458D counted along it

In the case of `CC/C(=C(\c1ccccc1)c1ccc(OCCNC)cc1)c1ccccc1` [ND-Tam, 2-[4-[(Z)-1,2-diphenylbut-1-enyl]phenoxy]-N-methylethanamine], the slope of concentration-dependence in experiment [1] turned out to be 2.1; in experiment [2], 2.2.
